According to patent US20220347167A1, “A NEW TREATMENT FOR MEIBOMIAN GLAND DYSFUNCTION” (The Schepens Eye Research Institute, Inc., priority 2019, published 2022):
Entries after “also recorded” stand apart in the source; their conditions may differ.

What was measured:
[1] = tested on: IHMGECs; assay: Oil red O (ORO) staining of neutral lipid droplets in IHMGECs; type: cell-based, human
Procedure: Authenticated IHMGECs were grown and passaged in keratinocyte serum-free medium (KSFM) with 5 ng/mL epidermal growth factor (EGF) and 50 μg/mL bovine pituitary extract (BPE) (Thermo Fisher Scientific, Waltham, Mass.) under 21% O2 (normoxia) [Liu et al. (2010) Investigative ophthalmology & visual science 51:3993-4005; McDermott et al. (2018) Current eye research 43:1097-1101; Liu et al. (2013) Investigative ophthalmology & visual science 54:2541-2550]. Upon reaching 60% to 70% confluence, culture media were replaced by a 1:1 mixture of Dulbecco's modified Eagle's medium and Ham's F12 (DMEM/F12, Corning Life Sciences, Tewksbury, Mass.), supplemented with 10% fetal bovine serum (FBS, Atlanta Biologicals, Flowery Branch, Ga.) [Sullivan et al. (2014) Investigative ophthalmology & visual science 55:3866-3877; Liu et al. (2014) JAMA ophthalmology 132:226-228]. Cells were cultured for 4-10 days under 21% O2 (normoxic) or 1% O2 (hypoxic) conditions. […]
After four days of incubation, cells seeded on chamber slides (Corning, Rochester, N.Y.) were stained with 0.3% Oil red 0 (ORO, Fisher Biotec, Wembley, Wash., Australia) according to the published protocol in Liu et al. (2010) Investigative ophthalmology & visual science 51:3993-4005) and Liu et al. (2014) Toxicology 320:1-5. […] The size of the stained area was quantified using ImageJ [Deutsch et al. (2014) Anal Biochem 445:87-89]. […]

[2] = tested on: IHMGECs; assay: HPTLC analysis of nonpolar lipids and phospholipids in IHMGEC lipid extracts; type: cell-based, human; conditions: Roxa, 4 days
Procedure: Authenticated IHMGECs were grown and passaged in keratinocyte serum-free medium (KSFM) with 5 ng/mL epidermal growth factor (EGF) and 50 μg/mL bovine pituitary extract (BPE) (Thermo Fisher Scientific, Waltham, Mass.) under 21% O2 (normoxia) [Liu et al. (2010) Investigative ophthalmology & visual science 51:3993-4005; McDermott et al. (2018) Current eye research 43:1097-1101; Liu et al. (2013) Investigative ophthalmology & visual science 54:2541-2550]. Upon reaching 60% to 70% confluence, culture media were replaced by a 1:1 mixture of Dulbecco's modified Eagle's medium and Ham's F12 (DMEM/F12, Corning Life Sciences, Tewksbury, Mass.), supplemented with 10% fetal bovine serum (FBS, Atlanta Biologicals, Flowery Branch, Ga.) [Sullivan et al. (2014) Investigative ophthalmology & visual science 55:3866-3877; Liu et al. (2014) JAMA ophthalmology 132:226-228]. Cells were cultured for 4-10 days under 21% O2 (normoxic) or 1% O2 (hypoxic) conditions. Culture plates of cells in the hypoxic condition were incubated inside hypoxia chambers filled with a premade 1% O2, 5% CO2 and 94% N2 gas mixture (Linde Gas North America, Hammond, Ind.), according to published protocols in Liu et al. (2019) The ocular surface 17(2):310-317 and Wright and Shay (2006) Nat Protoc 1:2088-2090. Following cell medium changes, the chambers were re-flushed with the gas mixture before returning to the incubator. Cells were cultured in the presence or absence of 50 μM Roxa (Selleck Chemical, Houston, Tex.) under normoxic or hypoxic conditions for 4 to 10 days. Cell culture experiments (n=3 wells/treatment) were repeated at least 3 times.
Cells seeded in 10-cm polystyrene-coated dishes (Corning, Falcon) were extracted with chloroform and methanol, and the lipid extractions were separated by high-performance thin-layer chromatography (HPTLC), as previously described in Liu et al. Toxicology 2014; 320:1-5, Liu and Ding (2014) Investigative ophthalmology & visual science 55:5596-5601, and Liu et al. (2015) Cornea 34:342-346. In brief, for nonpolar lipid analysis, the plate (Silica Gel 60, Merck, Darmstadt, Germany) was developed in hexane: diethyl ether: acetic acid (80:20:1.5, vol/vol/vol) alone. For phospholipids analysis, the plate was developed sequentially in chloroform:ethanol:water (60:30:5 vol/vol/vol) and then hexane:diethyl ether:acetic acid (80:20:1.5, vol/vol/vol) [Liu and Ding (2014) Investigative ophthalmology & visual science 55:5596-5601]. Bands were visualized according to published protocols [Ponec et al. (1988) Journal of lipid research 29:949-961], and the intensities of bands were quantified using ImageJ [Liu and Ding (2014) Investigative ophthalmology & visual science 55:5596-5601].
To examine whether 1% O2 exposure and/or Roxa administration stimulate the accumulation of neutral lipids within IHMGECs [Liu et al. (2019) Ocul Surf 17:310-317], IHMGECs were treated with Roxa ([…]) in either normoxic (21% O2) or hypoxic (1% O2) environments conditions for 4 days.

[3] = tested on: IHMGECs; assay: Intracellular pH in IHMGECs; type: cell-based, human; conditions: exposure to Roxa, in vitro
Source text: It was recently discovered that a hypoxic environment is beneficial for meibomian gland (MG) function. The mechanism(s) underlying this effect was unknown, but may be due to an increase in the levels of hypoxia-inducible factor 1α (HIF1a). In other tissues, HIF1α is the primary regulator of cellular responses to hypoxia and HIF1α expression can be induced by multiple stimuli, including hypoxia and low oxygen mimetic agents. In the current studies described in this Example, human eyelid tissues were stained for HIF1α. Immortalized human MG epithelial cells (IHMGECs) were cultured for varying time periods under normoxic (21% O2) or hypoxic (1% O2) conditions, in the presence or absence of the low oxygen mimetic agent Roxadustat (Roxa). IHMGECs were then processed for the analysis of cell number, HIF1α expression, lipid-containing vesicles, neutral and polar lipid content, DNase II activity and intracellular pH. […] The data support that the beneficial effect of hypoxia on the MG is mediated through an increased expression of HIF1α.

[4] = tested on: HMGECs; assay: Effect of low oxygen mimetic drugs on HMGEC function / lipid induction; type: cell-based, human
[5] = tested on: apolipoprotein E-deficient (ApoE −/−) mice; assay: Serum cholesterol in ApoE −/− mice (cholesterol fluorometric assay kit); type: in vivo, mouse; conditions: Roxa 10 mg/kg subcutaneous, three times per week for 12 weeks, vs vehicle, p<0.05
Procedure: The whole blood samples of mice were collected by cardiac puncture after sacrificing. The blood samples were allowed to clot by leaving it undisturbed at room temperature for 15 minutes. The clot was removed by centrifuging at 1,000-2,000×g for 10 minutes in a refrigerated centrifuge. The resulting supernatant was designated serum. Then the cholesterol level in the serum was evaluated by using a commercially available cholesterol fluorometric assay kit (#10007640, Cayman Chemical, Mich.). The weight of each mice was measured before and after the experiment. The percentage of weight gain was compared between the Roxa-treated mice and the vehicle-treated mice.
At the beginning of the study, the 16 ApoE−/− mice and 4 wild-type (WT) C57BL/6J mice, 12 weeks of age, were measured for their weight, tear volume, corneal fluorescein staining and tear breakup time (TBUT). The ApoE −/− mice were randomly divide into 2 groups (n=8 mice/group) and treated with vehicle control (2% DMSO in sterile saline, subcutaneous injection) or Roxa (10 mg/kg, subcutaneous injection). The injections were administrated three times per week (on Monday, Wednesday, and Friday mornings) for 12 weeks. […] At the end of the study, the weight, tear volume, corneal fluorescein staining and tear breakup time (TBUT) were measured again. […]

[6] = under either normoxic or hypoxic conditions, vs controls

## Cc1nc(C(=O)NCC(=O)O)c(O)c2ccc(Oc3ccccc3)cc12 [Roxa, roxadustat]
[1]; Roxa alone, 21% O2, 4 days
  accumulation of neutral lipid droplets in IHMGECs (area of ORO staining): significantly increased; also recorded: duplicated the effect of a hypoxic environment
[1]; Roxa in 1% O2, 4 days
  accumulation of neutral lipid droplets in IHMGECs (area of ORO staining), combination of Roxa and 1% O2: significantly increased; also recorded: further increased
[2]
  amount of cholesterol esters in IHMGECs: Neither Roxa nor 1% O2 had any effect
  amount of lysophosphatidylcholines in IHMGECs: Neither Roxa nor 1% O2 had any effect
  amount of phosphatidic acid in IHMGECs: Neither Roxa nor 1% O2 had any effect
  amount of phosphatidylcholine in IHMGECs: Neither Roxa nor 1% O2 had any effect
  amount of phosphatidylethanolamine in IHMGECs: Neither Roxa nor 1% O2 had any effect
  amount of phosphatidylinositol in IHMGECs: Neither Roxa nor 1% O2 had any effect
  amount of wax esters in IHMGECs: Neither Roxa nor 1% O2 had any effect
  expression of unidentified polar lipids in IHMGECs (HPTLC): appeared to enhance
[2]; [6]
  levels of free fatty acids (FFAs) in IHMGECs (HPTLC): increased
  levels of triglycerides in IHMGECs (HPTLC): increased
[3]
  pH in IHMGECs: decreases
[4]
  lipid-inducing effect in HMGECs compared with other low oxygen mimetic drugs: stronger lipid-inducing effect
[5]
  serum cholesterol level: significantly reduced
